US9249159B2, “Composition for treating hepatitis C virus, regulating phosphorylation of replicase” (Industry-Academic Cooperation Foundation, Yonsei University, priority 2011, dated 2016)

How the values were obtained:
[1] = system: genotype 2a HCV (JFH1)-infected Huh7 cells; test: HCV RNA level in Huh7 cells infected with HCV (JFH1); assay type: cell-based, hepatitis C virus genotype 2a; conditions: JFH1-infected Huh7 cell, 500 nM, 72 hours
Protocol: To do so, after the two cell lines were treated with the compound #17 at higher concentrations (60 and 100 μM) than 20 μM for 48 hours, an HCV RNA genome level was checked by a real-time RT-PCR analysis. A value was a mean±standard deviation (SD) of three independent measurements. HCV RNA titer was quantified by real-time PCR analysis. Three independent experiments were performed in triplicate.
Full-length, infectious HCV RNA of the genotype 2a HCV clone JFH1 was prepared by in vitro transcription using the MEGAscript T7 kit (Ambion, Austin, Tex., USA) and electroporated into Huh7 cells as described previously. Briefly, at 72 h post electroporation, culture medium was collected, cleared by low-speed centrifugation, and passed through a 0.45-μm filter (Millipore, Billerica, Mass., USA) before being used for infection of Huh7 cells. Cells were infected with HCV at a multiplicity of infection of 0.3 by adsorption for 3 h with periodic rocking, then washed three times with phosphate-buffered saline (PBS) and maintained in complete DMEM. […]
Total RNA was extracted from R-1 or HCV (JFH1)-infected cells using TRIzol LS reagent (Invitrogen, Carlsbad, Calif., USA) and purified according to the manufacturer's instructions. HCV RNA levels were quantified by RT-PCR using a primer pair and TaqMan probe targeting a region within the HCV 5′-UTR as described previously. […] Assays were performed using the DyNAmo Probe 2-step qRT-PCR Kit (Finnzymes, Espoo, Finland) and a CHROMO4 continuous fluorescence detector (Bio-Rad, Hercules, Calif., USA), according to the manufacturer's instructions.
In order to analyze whether or not 17-DMAG can inhibit replication in a cell infected with HCV, an experiment was carried out with the genotype 2a HCV infectious clone JFH1, which produces infectious virions in Huh7 or Huh7-derived cell lines. […] After 72 hours, total cellular RNA was extracted and HCV remaining in the infected cell was analyzed by quantitative RT-PCR.

HCV IRES = test: Dual luciferase reporter assay of translation via HCV IRES in Huh7 cell; assay type: cell-based, hepatitis C virus; conditions: various concentrations, 72 hours
Source text: The dual luciferase expression vector allowing cap-dependent translation of a Renilla (RLuc) reporter and HCV internal ribosome entry site (IRES)-mediated luciferase translation of a firefly luciferase (FLuc) reporter was constructed by inserting the HCV IRES and partial core protein-coding region fused to the cDNA for FLuc downstream of the Renilla luciferase reporter gene as described previously. Huh7 cells were transiently transfected with the bicistronic dual luciferase vector using Fugene HD (Roche Applied Science, Indianapolis, Ind., USA). RLuc and FLuc activities in cell lysates were quantified using the Dual-Glo luciferase assay kit (Promega) on the GloMax-Multi detection system (Promega).
Then, in order to observe an effect of 17-DMAG on translation via HCV IRES, a dual reporter assay was carried out. The Huh7 cell was transfected by a dual reporter assay plasmid (FIG. 11B, upper diagram), and treated with 17-DMAG at various concentrations for 72 hours. […] A level of the Firefly luciferase […] and a Renilla luciferase […] was measured by dual luciferase assay and expressed in % with respect to a control treated with DMSO (first bar). […]

R-1 cell = test: Cytotoxicity / cell viability in R-1 cell; assay type: cell-based, human; conditions: R-1 cell versus parental Huh7, 72 hours
Protocol: Cytotoxicity of 17-DMAG was measured by using a reagent MTS [3-(4,5-dimethylthiazol-2-yl)-5-(3-carboxylmethoxyphenyl)-2-(4-sulfophenyl)-2H-tetrazolium] (Promega, Madison, Wis., USA) according to the protocols of the manufacturer. The experiment was carried out as follows.
Huh7 or R-1 cells (2×10^4 cell/well) were seeded in a 96-well plate and treated with 17-DMAG at different concentrations for 72 hours. Then, the culture medium was removed and a MTS substrate dissolved in the culture medium containing 5% FBS was added to each well of the plate. The cells were cultured at 37° C. for 1 hour, and absorbance at 490 nm was read in a 96-well micro plate automatic reading system using GloMax-Multi detection system (Promega).
An experiment was carried out to check whether or not 17-DMAG inhibited virus RNA replication in an R-1 cell in which autonomous replication of a genotype 1b HCV subgenomic replicon RNA was maintained. Before antiviral activity of 17-DMAG was evaluated, an MTS assay was carried out to evaluate whether or not the drug interfered with cell viability. To be specific, the R-1 cell loaded with a selective HCV subgenomic replicon (upper diagram) and its parental cell line Huh7 were treated with 17-DMAG at a certain concentration for 72 hours, and cell viability was evaluated by the MTS assay.

PRK2 = target: T1, PRK2 (Homo sapiens, UniProt Q16513); test: PRK2 phosphorylation (Thr816) and PRK2 level in R-1 cells by Western blot; assay type: cell-based; conditions: R-1 cell, 72 hours
T1 construct: endogenous in cells; host or cells: R-1 (Huh7-derived HCV replicon cells) and Huh7
Protocol: After the R-1 cell line was treated with the PRK2 inhibitor at a final concentration of 10 or 20 μM for 48 hours, phosphorylation or not of Thr^816 residue essential for activity of PRK2 was analyzed by Western blot using a phospho-PRK2 antibody to measure an expression level of phosphorylated PRK2. Immunoblotting using an anti-α-tubulin antibody was carried out to check whether or not the same amount of protein was loaded.
Total cell lysates from cells treated with inhibitors or IFN-α by using antibodies to PDK1, p-PDK1 (S241), PRK2, and p-PRK2 (T816) (products of Cell Signaling Technology, Inc., Beverly, Mass., USA) was used for immunoblotting. In order to detect PKC isoforms α, β, and γ, a polyclonal antibody to a consensus sequence present in three PKC (protein kinase C) isoforms α, β and γ (anti-pan-PKC; Zymed Laboratories, San Francisco, Calif., USA) was used. An anti-α-tubulin antibody (Oncogene Research Products, Cambridge, Mass., USA) was carried out in immunoblotting for checking whether or not the same amount of protein was loaded.
The levels of the proteins were measured by densitometric analysis of immunoblot, and the phosphorylated amounts and relative intensities calculated with respect to PDK1 and PDK2 were converted with respect to α-tubulin signals and then quantitated. As a result of three independent experiments showing similar results, a representative blot picture was illustrated.
Then, in order to check whether or not IFN-α affected a PDK1-PRK2 signaling pathway, the R-1 cell was treated with 100 IU/ml of IFN-α hourly for 6 hours. SDS-PAGE was carried out to the cell lysates, and immunoblotting was carried out. The immunoblotting with anti-α-tubulin antibody was used as an internal control for loading. A representative result from one of the three independent experiments showing a similar result was illustrated.

Rho-kinase I (ROCKI) = test: ROCKI level in Huh7 cell by immunoblotting; assay type: cell-based; conditions: 48 hours

T1 sequence (Q16513 whole entry): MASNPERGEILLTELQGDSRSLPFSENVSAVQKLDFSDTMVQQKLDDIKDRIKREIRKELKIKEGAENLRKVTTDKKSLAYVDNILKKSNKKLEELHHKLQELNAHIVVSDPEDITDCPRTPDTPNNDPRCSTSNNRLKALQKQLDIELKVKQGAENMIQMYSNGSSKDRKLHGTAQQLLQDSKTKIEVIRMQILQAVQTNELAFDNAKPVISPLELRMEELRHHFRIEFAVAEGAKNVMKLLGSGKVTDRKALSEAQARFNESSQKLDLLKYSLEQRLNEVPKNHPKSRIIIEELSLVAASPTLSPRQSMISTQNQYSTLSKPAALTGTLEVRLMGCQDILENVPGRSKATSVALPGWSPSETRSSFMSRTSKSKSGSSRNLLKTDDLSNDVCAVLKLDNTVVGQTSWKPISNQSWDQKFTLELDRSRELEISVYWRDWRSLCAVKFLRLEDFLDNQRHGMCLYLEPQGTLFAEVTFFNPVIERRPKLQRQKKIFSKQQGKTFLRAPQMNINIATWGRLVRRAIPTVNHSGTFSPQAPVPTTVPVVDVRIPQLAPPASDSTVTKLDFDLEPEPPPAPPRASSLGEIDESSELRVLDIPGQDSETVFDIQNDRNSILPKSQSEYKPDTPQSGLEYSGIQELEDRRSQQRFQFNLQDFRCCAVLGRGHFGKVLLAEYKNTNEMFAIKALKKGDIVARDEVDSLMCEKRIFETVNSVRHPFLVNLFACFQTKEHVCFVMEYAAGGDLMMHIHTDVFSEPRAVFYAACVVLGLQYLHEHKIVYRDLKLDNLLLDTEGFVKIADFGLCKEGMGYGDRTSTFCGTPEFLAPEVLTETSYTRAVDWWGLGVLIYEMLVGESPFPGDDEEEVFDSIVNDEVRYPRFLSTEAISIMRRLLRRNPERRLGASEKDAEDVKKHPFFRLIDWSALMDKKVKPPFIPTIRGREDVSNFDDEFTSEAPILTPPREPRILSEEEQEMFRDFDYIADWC

## CO[C@H]1/C=C\C=C(/C)C(=O)NC2=CC(=O)C(NCCN(C)C)=C(C[C@@H](C)C[C@H](OC)[C@H](O)[C@@H](C)/C=C(\C)[C@@H]1OC(N)=O)C2=O [17-DMAG, 17-(dimethylaminoethylamino)-17-demethoxygeldanamycin]
[1]
  decrease of level of viral RNA: about 87%
HCV IRES
  effect on translation via HCV IRES: did not have an effect
R-1 cell
  sensitivity of cell viability (MTS assay): more sensitive to 17-DMAG than the parental cell line Huh7
PRK2; 50 nM
  stability of PRK2: not affected
PRK2; 10 or 50 nM
  level of p-PRK2: decreased
Rho-kinase I (ROCKI)
  steady state content of Rho-kinase I (ROCKI): not significantly affected
